Activity calls are given as the source filed them. Rule as the data show it, for most assays here: actives have a measured Kd and inactives only a lower limit.
Columns and labels:
[1] = biological target: AP2-associated protein kinase 1 (Homo sapiens, UniProt Q2M2I8)
[2] = biological target: Tyrosine-protein kinase ABL2 (Homo sapiens, UniProt P42684)
[3] = biological target: Tyrosine-protein kinase JAK1 (Homo sapiens, UniProt P23458)
[4] = biological target: Mitogen-activated protein kinase 11 (Homo sapiens, UniProt Q15759)
Chain of Mitogen-activated protein kinase 11 (Q15759 whole entry): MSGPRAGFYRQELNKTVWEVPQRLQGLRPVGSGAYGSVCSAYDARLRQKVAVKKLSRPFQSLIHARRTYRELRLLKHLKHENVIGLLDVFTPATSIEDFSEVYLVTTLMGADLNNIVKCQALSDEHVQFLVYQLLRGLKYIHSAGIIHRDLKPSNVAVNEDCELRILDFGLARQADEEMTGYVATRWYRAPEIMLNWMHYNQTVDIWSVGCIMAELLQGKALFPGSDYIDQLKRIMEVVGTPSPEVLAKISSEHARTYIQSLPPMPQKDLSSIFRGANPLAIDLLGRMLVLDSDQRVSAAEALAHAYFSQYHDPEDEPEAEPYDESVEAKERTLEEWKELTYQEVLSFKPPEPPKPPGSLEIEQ

[5] = biological target: Structural maintenance of chromosomes protein 2 (Homo sapiens, UniProt O95347)
Chain of Structural maintenance of chromosomes protein 2 (O95347 whole entry): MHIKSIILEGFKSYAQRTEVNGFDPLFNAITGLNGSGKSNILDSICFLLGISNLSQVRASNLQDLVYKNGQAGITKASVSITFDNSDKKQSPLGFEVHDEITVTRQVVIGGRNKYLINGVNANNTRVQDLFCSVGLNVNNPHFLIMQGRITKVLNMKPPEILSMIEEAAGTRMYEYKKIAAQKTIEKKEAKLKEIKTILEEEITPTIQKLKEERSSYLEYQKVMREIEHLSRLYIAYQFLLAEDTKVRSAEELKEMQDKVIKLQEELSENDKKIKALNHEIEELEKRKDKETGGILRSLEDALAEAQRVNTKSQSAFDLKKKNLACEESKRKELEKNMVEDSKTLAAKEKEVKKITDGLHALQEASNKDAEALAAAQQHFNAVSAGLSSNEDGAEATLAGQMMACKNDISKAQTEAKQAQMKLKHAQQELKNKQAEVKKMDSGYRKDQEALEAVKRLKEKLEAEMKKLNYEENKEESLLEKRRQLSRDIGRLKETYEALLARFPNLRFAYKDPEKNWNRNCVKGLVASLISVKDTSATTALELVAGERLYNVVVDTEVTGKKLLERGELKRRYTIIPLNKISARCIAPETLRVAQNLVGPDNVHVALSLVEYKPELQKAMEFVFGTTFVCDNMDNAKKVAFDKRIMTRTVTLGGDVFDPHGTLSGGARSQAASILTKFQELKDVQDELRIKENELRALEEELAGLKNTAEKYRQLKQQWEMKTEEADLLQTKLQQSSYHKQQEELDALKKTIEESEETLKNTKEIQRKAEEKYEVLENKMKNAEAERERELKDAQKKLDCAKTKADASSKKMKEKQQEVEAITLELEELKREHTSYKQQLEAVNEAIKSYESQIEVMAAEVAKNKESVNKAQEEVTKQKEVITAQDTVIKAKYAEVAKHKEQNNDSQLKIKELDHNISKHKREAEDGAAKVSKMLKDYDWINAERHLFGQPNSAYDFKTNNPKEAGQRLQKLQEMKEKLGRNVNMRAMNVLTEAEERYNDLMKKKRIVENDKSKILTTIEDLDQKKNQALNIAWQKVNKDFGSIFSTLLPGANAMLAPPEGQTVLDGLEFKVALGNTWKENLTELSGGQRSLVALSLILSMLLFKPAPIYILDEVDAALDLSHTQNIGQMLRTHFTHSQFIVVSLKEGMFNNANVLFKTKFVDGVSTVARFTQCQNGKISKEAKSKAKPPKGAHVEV

[6] = biological target: T1, Tyrosine--tRNA ligase, cytoplasmic (Homo sapiens, UniProt P54577)
T1 sequence (P54577 whole entry): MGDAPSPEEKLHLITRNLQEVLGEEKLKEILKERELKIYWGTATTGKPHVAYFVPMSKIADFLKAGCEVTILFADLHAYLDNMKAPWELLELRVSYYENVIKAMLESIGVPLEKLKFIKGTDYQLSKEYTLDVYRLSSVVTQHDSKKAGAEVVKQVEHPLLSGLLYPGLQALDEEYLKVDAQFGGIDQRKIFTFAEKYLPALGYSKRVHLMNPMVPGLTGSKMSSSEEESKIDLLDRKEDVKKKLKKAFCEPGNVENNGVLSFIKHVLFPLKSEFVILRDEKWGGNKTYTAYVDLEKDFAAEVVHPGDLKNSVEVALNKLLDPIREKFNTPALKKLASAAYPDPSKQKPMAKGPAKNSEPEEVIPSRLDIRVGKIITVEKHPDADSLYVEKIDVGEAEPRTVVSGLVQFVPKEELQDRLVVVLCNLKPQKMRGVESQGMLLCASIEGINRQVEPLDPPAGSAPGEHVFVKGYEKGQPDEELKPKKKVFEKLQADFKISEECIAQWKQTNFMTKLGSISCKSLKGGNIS

[7] = biological target: BMP-2-inducible protein kinase (Homo sapiens, UniProt Q9NSY1)
[8] = biological target: T2, MAP kinase-activated protein kinase 5 (Homo sapiens, UniProt Q8IW41)
T2 sequence (Q8IW41 whole entry): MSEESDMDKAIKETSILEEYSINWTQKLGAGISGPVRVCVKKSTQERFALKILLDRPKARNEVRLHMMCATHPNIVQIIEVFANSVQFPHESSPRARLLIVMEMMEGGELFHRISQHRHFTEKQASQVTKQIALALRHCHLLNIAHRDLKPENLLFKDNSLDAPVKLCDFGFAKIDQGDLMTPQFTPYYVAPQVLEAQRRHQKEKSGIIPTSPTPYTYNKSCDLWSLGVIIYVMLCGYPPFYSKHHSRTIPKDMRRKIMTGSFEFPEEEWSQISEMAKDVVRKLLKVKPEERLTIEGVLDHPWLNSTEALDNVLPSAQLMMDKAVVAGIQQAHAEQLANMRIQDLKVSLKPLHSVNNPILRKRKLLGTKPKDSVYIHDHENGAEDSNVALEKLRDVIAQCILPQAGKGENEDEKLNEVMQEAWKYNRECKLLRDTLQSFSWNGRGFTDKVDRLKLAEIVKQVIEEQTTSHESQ

[9] = biological target: T3, Phosphorylase b kinase gamma catalytic chain, liver/testis isoform (Homo sapiens, UniProt P15735)
T3 sequence (P15735 whole entry): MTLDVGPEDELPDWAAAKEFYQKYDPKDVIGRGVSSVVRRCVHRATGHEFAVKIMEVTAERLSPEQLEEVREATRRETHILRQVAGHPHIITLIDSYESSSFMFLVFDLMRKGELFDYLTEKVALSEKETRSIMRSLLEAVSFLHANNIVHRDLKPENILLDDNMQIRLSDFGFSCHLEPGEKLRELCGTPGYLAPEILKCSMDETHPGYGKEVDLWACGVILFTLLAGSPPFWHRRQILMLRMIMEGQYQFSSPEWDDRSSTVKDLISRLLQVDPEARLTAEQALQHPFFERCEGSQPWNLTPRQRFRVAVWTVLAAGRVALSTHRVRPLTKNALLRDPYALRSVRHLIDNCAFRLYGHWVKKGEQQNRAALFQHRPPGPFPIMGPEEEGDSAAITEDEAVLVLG

[10] = biological target: Fibroblast growth factor receptor 1 (Homo sapiens, UniProt P11362)
[11] = biological target: Tyrosine-protein kinase ABL1 (Homo sapiens, UniProt P00519)
Chain of Tyrosine-protein kinase ABL1 (P00519 whole entry): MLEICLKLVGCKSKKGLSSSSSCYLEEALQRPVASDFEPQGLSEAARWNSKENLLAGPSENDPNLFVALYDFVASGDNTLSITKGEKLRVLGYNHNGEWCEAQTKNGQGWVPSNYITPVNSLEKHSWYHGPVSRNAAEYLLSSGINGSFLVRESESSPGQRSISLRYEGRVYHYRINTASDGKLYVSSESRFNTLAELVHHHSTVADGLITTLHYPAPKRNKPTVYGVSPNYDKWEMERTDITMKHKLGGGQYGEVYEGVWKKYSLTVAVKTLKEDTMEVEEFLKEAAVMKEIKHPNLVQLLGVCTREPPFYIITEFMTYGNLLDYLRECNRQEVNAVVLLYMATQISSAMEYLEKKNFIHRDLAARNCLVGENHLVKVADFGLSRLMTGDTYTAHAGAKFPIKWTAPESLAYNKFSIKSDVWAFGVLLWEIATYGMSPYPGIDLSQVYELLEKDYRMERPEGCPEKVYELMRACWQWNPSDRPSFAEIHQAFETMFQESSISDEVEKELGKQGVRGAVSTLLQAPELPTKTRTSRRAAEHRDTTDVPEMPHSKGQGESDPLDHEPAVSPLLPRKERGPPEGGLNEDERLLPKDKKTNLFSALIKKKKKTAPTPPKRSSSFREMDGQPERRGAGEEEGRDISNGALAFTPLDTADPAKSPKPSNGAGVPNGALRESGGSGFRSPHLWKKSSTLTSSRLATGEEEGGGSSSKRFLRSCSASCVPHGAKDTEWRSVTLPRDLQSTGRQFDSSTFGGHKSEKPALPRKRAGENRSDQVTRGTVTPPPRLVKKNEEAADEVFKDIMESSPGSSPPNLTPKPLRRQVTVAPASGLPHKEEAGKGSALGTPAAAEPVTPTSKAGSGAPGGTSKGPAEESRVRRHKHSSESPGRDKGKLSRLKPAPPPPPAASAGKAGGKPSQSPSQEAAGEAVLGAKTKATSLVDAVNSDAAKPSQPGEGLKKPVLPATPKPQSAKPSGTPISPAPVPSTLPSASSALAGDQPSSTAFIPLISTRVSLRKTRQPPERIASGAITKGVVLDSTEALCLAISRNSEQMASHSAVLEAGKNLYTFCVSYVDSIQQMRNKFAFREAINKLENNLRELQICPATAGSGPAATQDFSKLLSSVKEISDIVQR

[12] = biological target: T4, Serine/threonine-protein kinase TBK1 (Homo sapiens, UniProt Q9UHD2)
T4 sequence (Q9UHD2 whole entry): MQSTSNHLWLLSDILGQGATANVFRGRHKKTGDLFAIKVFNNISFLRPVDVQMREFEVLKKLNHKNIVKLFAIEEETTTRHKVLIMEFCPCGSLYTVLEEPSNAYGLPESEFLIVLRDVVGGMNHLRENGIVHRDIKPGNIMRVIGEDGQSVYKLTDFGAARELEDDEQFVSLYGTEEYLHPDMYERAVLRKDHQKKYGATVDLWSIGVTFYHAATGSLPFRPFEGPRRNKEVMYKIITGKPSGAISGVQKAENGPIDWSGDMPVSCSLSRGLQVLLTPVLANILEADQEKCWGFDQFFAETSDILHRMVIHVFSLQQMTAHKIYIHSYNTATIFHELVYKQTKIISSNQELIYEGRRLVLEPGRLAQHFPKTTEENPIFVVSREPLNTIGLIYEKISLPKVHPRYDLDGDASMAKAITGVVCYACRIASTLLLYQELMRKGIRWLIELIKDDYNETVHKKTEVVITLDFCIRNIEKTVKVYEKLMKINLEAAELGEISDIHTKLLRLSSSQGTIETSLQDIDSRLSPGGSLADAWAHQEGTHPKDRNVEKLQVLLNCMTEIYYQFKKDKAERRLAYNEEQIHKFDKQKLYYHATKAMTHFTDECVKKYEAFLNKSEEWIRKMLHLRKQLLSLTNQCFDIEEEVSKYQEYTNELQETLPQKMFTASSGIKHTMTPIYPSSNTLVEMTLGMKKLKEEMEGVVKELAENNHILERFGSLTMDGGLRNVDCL

Measured: Kd
Also: in the data inactive means no Kd found up to 30 µM.

Chain of AP2-associated protein kinase 1 (Q2M2I8 whole entry): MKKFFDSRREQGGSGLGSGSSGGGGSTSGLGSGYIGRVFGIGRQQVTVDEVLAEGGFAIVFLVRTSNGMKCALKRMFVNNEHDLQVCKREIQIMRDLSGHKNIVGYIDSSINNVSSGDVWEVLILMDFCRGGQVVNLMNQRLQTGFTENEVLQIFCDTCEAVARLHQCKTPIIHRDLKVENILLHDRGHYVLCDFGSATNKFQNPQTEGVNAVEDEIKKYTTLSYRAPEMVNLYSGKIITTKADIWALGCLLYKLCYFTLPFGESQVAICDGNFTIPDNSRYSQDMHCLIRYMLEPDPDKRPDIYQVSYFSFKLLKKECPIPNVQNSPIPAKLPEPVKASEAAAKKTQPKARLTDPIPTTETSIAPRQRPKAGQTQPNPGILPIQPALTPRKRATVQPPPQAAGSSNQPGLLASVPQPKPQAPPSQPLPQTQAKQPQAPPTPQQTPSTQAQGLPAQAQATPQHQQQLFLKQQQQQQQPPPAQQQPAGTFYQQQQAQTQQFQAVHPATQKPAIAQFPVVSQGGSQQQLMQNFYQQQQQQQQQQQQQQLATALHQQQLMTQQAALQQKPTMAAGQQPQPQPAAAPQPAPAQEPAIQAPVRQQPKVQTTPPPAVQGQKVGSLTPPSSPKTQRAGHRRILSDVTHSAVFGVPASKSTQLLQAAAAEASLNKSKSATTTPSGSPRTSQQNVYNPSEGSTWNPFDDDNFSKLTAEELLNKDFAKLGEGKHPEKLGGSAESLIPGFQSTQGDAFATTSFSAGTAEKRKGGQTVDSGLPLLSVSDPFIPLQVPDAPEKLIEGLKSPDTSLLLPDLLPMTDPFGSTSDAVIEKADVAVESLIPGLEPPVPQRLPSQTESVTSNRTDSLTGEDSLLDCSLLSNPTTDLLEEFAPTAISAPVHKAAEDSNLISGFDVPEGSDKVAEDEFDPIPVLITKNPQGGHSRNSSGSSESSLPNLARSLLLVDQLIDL
Chain of Tyrosine-protein kinase ABL2 (P42684 whole entry): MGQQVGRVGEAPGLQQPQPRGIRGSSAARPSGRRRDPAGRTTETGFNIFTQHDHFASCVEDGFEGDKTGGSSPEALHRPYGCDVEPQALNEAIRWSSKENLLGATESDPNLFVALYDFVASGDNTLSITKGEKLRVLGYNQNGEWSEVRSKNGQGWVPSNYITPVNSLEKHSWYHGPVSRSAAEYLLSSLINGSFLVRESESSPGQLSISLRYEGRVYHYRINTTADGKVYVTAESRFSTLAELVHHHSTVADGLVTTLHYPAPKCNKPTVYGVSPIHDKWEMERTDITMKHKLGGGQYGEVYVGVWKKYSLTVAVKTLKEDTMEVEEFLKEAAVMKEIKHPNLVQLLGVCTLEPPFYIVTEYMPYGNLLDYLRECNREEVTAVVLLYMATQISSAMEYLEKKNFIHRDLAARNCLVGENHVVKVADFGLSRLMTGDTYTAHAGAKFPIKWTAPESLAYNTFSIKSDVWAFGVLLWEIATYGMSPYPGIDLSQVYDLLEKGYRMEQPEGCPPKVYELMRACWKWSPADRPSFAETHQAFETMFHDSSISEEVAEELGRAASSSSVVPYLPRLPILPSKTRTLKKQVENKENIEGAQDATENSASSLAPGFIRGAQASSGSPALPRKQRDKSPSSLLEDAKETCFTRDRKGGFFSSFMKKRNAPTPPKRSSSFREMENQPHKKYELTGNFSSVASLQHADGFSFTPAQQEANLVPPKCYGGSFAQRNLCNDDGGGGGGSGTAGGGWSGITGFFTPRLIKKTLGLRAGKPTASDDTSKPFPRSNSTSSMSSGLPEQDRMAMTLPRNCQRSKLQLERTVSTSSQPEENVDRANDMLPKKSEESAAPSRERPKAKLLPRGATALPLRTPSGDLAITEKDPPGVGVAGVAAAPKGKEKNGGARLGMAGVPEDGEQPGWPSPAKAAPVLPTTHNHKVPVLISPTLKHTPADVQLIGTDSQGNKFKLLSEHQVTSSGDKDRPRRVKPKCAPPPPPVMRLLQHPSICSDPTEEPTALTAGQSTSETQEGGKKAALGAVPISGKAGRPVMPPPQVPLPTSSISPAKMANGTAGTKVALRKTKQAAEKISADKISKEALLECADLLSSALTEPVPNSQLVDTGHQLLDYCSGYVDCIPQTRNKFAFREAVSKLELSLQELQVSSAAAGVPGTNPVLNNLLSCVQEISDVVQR

CN(c1ncccc1CNc1nc(Nc2ccc3c(c2)CC(=O)N3)ncc1C(F)(F)F)S(C)(=O)=O [PF-00562271]
inactive: [1] > 30 µM | [2] > 30 µM | [3] > 30 µM | [4] > 30 µM | [5] > 30 µM | [6] > 30 µM

C=CCn1c(=O)c2cnc(Nc3ccc(N4CCN(C)CC4)cc3)nc2n1-c1cccc(C(C)(C)O)n1 [ADAVOSERTIB]
inactive: [1] > 30 µM | [2] > 30 µM | [7] > 30 µM | [3] > 30 µM | [4] > 30 µM | [8] > 30 µM | [9] > 30 µM | [5] > 30 µM | [6] > 30 µM

COc1cc2c(Oc3ccc4[nH]c(C)cc4c3F)ncnc2cc1OCCCN1CCCC1 [CEDIRANIB]
inactive: [5] > 30 µM | [6] > 30 µM

N#CCNC(=O)c1ccc(-c2ccnc(Nc3ccc(N4CCOCC4)cc3)n2)cc1 [MOMELOTINIB]
active: [1] 0.004 µM
inactive: [2] > 30 µM | [10] > 30 µM | [8] > 30 µM | [9] > 30 µM | [5] > 30 µM | [6] > 30 µM

CC1(C)CNc2cc(NC(=O)c3cccnc3NCc3ccncc3)ccc21 [MOTESANIB]
inactive: [5] > 30 µM | [6] > 30 µM

C=CC(=O)Nc1cccc(Nc2nc(Nc3ccc(N4CCN(C(C)=O)CC4)cc3OC)ncc2C(F)(F)F)c1 [ROCILETINIB]
inactive: [1] > 30 µM | [11] > 30 µM | [2] > 30 µM | [7] > 30 µM | [10] > 30 µM | [3] > 30 µM | [8] > 30 µM | [9] > 30 µM | [5] > 30 µM | [12] > 30 µM | [6] > 30 µM

CN(C)C/C=C/C(=O)Nc1cc2c(Nc3ccc(F)c(Cl)c3)ncnc2cc1O[C@H]1CCOC1 [AFATINIB]
inactive: [5] > 30 µM | [6] > 30 µM

Cn1cc(-c2[nH]c3cc(NC(=O)[C@H](N)C4CCCCC4)cc4c3c2C=NNC4=O)cn1
active: [1] 0.002 µM | [2] 1.37 µM | [7] 0.006 µM | [10] 0.192 µM
inactive: [4] > 30 µM | [8] > 30 µM | [9] > 30 µM | [5] > 30 µM | [12] > 30 µM | [6] > 30 µM

NC(=O)c1ccc(N(C(N)=O)c2c(F)cccc2F)nc1-c1ccc(F)cc1F [VX-702]
inactive: [1] > 30 µM | [11] > 30 µM | [2] > 30 µM | [7] > 30 µM | [10] > 30 µM | [3] > 30 µM | [8] > 30 µM | [9] > 30 µM | [5] > 30 µM | [12] > 30 µM | [6] > 30 µM

CCc1nc(C(N)=O)c(Nc2ccc(N3CCC(N4CCN(C)CC4)CC3)c(OC)c2)nc1NC1CCOCC1 [GILTERITINIB]
active: [1] 0.025 µM | [7] 0.046 µM
inactive: [11] > 30 µM | [2] > 30 µM | [10] > 30 µM | [3] > 30 µM | [4] > 30 µM | [8] > 30 µM | [5] > 30 µM | [12] > 30 µM | [6] > 30 µM

Cn1cnc2c(F)c(Nc3ccc(Br)cc3Cl)c(C(=O)NOCCO)cc21 [SELUMETINIB]
0.209 µM: [5]
inactive: [6] > 30 µM

Cn1c(=O)n(-c2ccc(C(C)(C)C#N)cc2)c2c3cc(-c4cnc5ccccc5c4)ccc3ncc21 [DACTOLISIB]
inactive: [1] > 30 µM | [2] > 30 µM | [7] > 30 µM | [3] > 30 µM | [4] > 30 µM | [8] > 30 µM | [9] > 30 µM | [5] > 30 µM | [6] > 30 µM

COc1cc2c(N3CCN(C(=O)Nc4ccc(OC(C)C)cc4)CC3)ncnc2cc1OCCCN1CCCCC1 [TANDUTINIB]
inactive: [5] > 30 µM | [6] > 30 µM

O=S(=O)(c1cccc2cnccc12)N1CCCNCC1 [FASUDIL]
inactive: [1] > 30 µM | [11] > 30 µM | [2] > 30 µM | [3] > 30 µM | [4] > 30 µM | [8] > 30 µM | [9] > 30 µM | [5] > 30 µM | [6] > 30 µM

CCN(CCCOc1ccc2c(Nc3cc(CC(=O)Nc4cccc(F)c4)n[nH]3)ncnc2c1)CCOP(=O)(O)O [BARASERTIB]
inactive: [1] > 30 µM | [2] > 30 µM | [7] > 30 µM | [3] > 30 µM | [4] > 30 µM | [8] > 30 µM | [9] > 30 µM | [5] > 30 µM | [6] > 30 µM

C[C@@]1(C(=O)Nc2ccc(F)nc2)CCCN1c1nc(Nc2cc(C3CC3)n[nH]2)c2cccn2n1 [BMS-754807]
inactive: [5] > 30 µM | [6] > 30 µM

O=S(=O)(c1cccc2c(O)nccc12)N1CCCNCC1 [HYDROXYFASUDIL]
inactive: [1] > 30 µM | [2] > 30 µM | [7] > 30 µM | [3] > 30 µM | [4] > 30 µM | [8] > 30 µM | [9] > 30 µM | [5] > 30 µM | [12] > 30 µM | [6] > 30 µM

CC(C)CC(=O)Nc1[nH]nc2c1CN(C(=O)C1CCN(C)CC1)C2(C)C [PHA-793887]
inactive: [1] > 30 µM | [2] > 30 µM | [7] > 30 µM | [10] > 30 µM | [3] > 30 µM | [4] > 30 µM | [8] > 30 µM | [5] > 30 µM | [12] > 30 µM | [6] > 30 µM
active: [9] 1 µM

C[C@]1(O)C[C@@H](c2nc(-c3ccc4ccc(-c5ccccc5)nc4c3)c3c(N)nccn32)C1 [LINSITINIB]
inactive: [1] > 30 µM | [2] > 30 µM | [7] > 30 µM | [3] > 30 µM | [5] > 30 µM | [12] > 30 µM | [6] > 30 µM
0.01 µM: [4]
